Entries after “also recorded” stand apart in the source; their conditions may differ.
System: not listed separately
Assay: Neural protective effect of colloid osmotic agents and Polypeptides (stated, no method given)
Conditions: general statement, no experiment described
For Collagen, the “protecting the CNS tissue (neural protective effect)” value (from here on “protecting the CNS tissue”) was “effective”.
With Dextran the “protecting the CNS tissue” value was “ineffective; also recorded: do not confer neuroprotective effect”.
With Hetastarch the “protecting the CNS tissue” value was “ineffective”.
In the case of albumin, the “protecting the CNS tissue” value is reported as “effective”.

System: cultured neurons
Assay: not given
Conditions: continuous application, 100 μM; cited from earlier work
For `Nc1ncnc2c1ncn2[C@@H]1O[C@H](COP(=O)(O)OP(=O)(O)OP(=O)(O)O)[C@@H](O)[C@H]1O` [ATP, Adenosine 5′-triphosphate], the “axonal transport of membrane-bound organelles in anterograde and retrograde directions” value is given as “significantly increased”.
In the case of `O=c1ccn([C@@H]2O[C@H](COP(=O)(O)OP(=O)(O)OP(=O)(O)O)[C@@H](O)[C@H]2O)c(=O)[nH]1` [Uridine 5′-triphosphate], the “axonal transport of membrane-bound organelles in anterograde and retrograde directions” value is listed as “effect similar to ATP”.
